# In publication PMC7584622, “Sensing of autoinducer-2 by functionally distinct receptors in prokaryotes” (Nature Communications, 2020):
# Where “and” joins values, the source holds several entries; their conditions need not be identical. Equal entries are not always repeated.
# Tests used:
# PctA-LBD Y101A = molecular target: T1, PctA-LBD Y101A (Pseudomonas aeruginosa, UniProt G3XD24, Y101A); test: biochemical; assay type: binding; details: PctA-LBD Y101A 70 μM; DPD/AI-2 700 μM
# T1 construct: Amino acids 30-278 and 36-360 of PctA and TlpQ, respectively; His6 (N, cleaved yes); made in house; host or cells: E. coli BL21(DE3) (pET-28a derivative)
# T1 sequence (G3XD24 30-278 Y101A): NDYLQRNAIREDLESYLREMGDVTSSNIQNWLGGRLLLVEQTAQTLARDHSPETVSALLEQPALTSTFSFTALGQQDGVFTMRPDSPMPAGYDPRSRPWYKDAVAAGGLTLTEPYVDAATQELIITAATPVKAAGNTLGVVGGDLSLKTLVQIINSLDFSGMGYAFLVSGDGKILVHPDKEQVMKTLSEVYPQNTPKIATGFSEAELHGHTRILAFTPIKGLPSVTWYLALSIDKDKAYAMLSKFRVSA
# PctB-LBD = PctB-LBD (Pseudomonas aeruginosa, UniProt Q9HW91); test: ITC binding to PctB-LBD; details: 700 μM DPD/AI-2 into 70 μM PctB-LBD, minor heats, not certain whether they reflect binding
# PctB-LBD, sequence (Q9HW91 32-276): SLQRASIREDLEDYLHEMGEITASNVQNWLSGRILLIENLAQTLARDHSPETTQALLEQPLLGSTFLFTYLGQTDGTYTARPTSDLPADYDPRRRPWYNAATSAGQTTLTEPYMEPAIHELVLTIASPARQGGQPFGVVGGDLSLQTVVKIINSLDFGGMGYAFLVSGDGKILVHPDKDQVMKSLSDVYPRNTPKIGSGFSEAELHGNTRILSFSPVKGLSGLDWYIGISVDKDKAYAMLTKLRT
# Method: (§1) ITC experiments were performed at 20 °C using a Nano ITC Standard Volume isothermal calorimeter (TA Instruments, New Castle, DE). […] The stirring speed was 200 r.p.m. and 25 injections were used each experiment. Three independent experiments were performed for each sample. […] ITC data were analyzed and fit with a one-site independent binding model using the NanoAnalyze software version 3.4 provided by the manufacturer, with the heat of dilution subtracted from the experimental titrations before data analysis.
# P. aeruginosa PAO1 [1] = test: crystal violet quantification of biofilm formation; details: 100 nM DPD/AI-2, 37 °C, 48 h
# Method: Biofilms were stained with crystal violet and quantified using optical density measurement after incubation at 37 °C for 48 h. Data are mean ± s.e.m. of five independent experiments. b Quantification of biofilm formation by P. aeruginosa strains from confocal imaging. […] Images were reconstructed using the Imaris 9.0 software package (Bitplane, AG) (Supplementary Fig. 6) and biofilm biovolumes were quantified using COMSTAT (www.comstat.dk). Biovolumes were calculated from three biological replicates and each biological replicate was derived from an average of five confocal images.
# For crystal violet quantification of biofilm formation, overnight cultures of relevant strains of P. aeruginosa were diluted with TSB medium to an OD600 of 0.05, and 190 μl aliquots of the diluted cells were inoculated into each well of a 96-well microtiter plate (cat# 220400, Zhejiang Sorfa Life Science Research Co., Ltd., China). […] After incubation at 37 °C for 48 h without shaking, culture supernatant was removed and the wells were washed twice with phosphate-buffered saline (PBS). Cells adhering to the wells were stained with 0.1% (w/v) crystal violet for 15 min and then washed three times with PBS. The bacteria-bound dye was dissolved in 200 μl of 95% ethanol and the absorbance was determined at 590 nm.
# LsrB = details: established receptor LsrB; cited from earlier work
# P. aeruginosa PAO1 [2] = test: quantitative capillary chemotaxis assay
# PctA-LBD D173A = molecular target: T2, PctA-LBD D173A (Pseudomonas aeruginosa, UniProt G3XD24, D173A); test: biochemical; assay type: binding; details: PctA-LBD D173A 70 μM; DPD/AI-2 700 μM
# T2 construct: Amino acids 30-278 and 36-360 of PctA and TlpQ, respectively; His6 (N, cleaved yes); made in house; host or cells: E. coli BL21(DE3) (pET-28a derivative)
# T2 sequence (G3XD24 30-278 D173A): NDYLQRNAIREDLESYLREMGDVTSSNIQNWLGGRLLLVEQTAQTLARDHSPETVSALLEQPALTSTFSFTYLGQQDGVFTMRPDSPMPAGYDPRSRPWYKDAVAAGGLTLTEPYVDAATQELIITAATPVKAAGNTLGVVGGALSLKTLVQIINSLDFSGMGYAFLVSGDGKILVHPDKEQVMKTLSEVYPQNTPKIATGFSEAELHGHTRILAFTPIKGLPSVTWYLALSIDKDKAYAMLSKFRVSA
# PctA-LBD Y144A = molecular target: T3, PctA-LBD Y144A (Pseudomonas aeruginosa, UniProt G3XD24, Y144A); test: biochemical; assay type: binding; details: PctA-LBD Y144A 70 μM; DPD/AI-2 700 μM
# T3 construct: Amino acids 30-278 and 36-360 of PctA and TlpQ, respectively; His6 (N, cleaved yes); made in house; host or cells: E. coli BL21(DE3) (pET-28a derivative)
# T3 sequence (G3XD24 30-278 Y144A): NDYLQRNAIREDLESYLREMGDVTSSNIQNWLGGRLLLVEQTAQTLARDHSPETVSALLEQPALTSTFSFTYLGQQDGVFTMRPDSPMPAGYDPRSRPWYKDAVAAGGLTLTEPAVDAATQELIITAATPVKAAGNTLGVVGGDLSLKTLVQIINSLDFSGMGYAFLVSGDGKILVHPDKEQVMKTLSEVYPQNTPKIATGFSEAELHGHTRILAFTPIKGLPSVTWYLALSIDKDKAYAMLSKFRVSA
# PctC-LBD = PctC-LBD (Pseudomonas aeruginosa, UniProt Q9HW93); test: ITC binding to PctC-LBD; details: 700 μM DPD/AI-2 into 70 μM PctC-LBD, minor heats, not certain whether they reflect binding
# PctC-LBD, sequence (Q9HW93 32-279): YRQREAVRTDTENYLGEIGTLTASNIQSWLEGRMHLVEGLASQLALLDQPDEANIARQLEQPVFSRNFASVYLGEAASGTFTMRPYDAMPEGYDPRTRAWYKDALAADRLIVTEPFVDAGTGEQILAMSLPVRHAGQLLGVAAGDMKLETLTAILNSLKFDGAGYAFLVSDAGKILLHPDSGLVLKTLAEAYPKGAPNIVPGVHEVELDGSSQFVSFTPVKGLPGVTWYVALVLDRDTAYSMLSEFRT
# Method: as §1
# KinD-LBD = molecular target: T4, KinD-LBD (Bacillus subtilis, UniProt O31671); test: ITC binding to KinD-LBD; design: species or system B. subtilis; details: 700 μM DPD/AI-2 into 70 μM KinD-LBD
# T4 construct: the LBD of HK KinD from B. subtilis; His6 (N, cleaved yes); made in house; host or cells: E. coli BL21(DE3) (pET-28a derivative)
# T4 sequence (O31671 37-250): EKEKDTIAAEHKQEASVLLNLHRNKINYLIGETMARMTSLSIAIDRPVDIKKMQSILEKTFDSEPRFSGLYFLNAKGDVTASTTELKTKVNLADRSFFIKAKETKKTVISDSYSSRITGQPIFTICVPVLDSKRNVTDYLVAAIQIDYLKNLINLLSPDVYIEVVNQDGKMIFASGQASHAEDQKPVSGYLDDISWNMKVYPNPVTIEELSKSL
# PctA-LBD Y121A = molecular target: T5, PctA-LBD Y121A (Pseudomonas aeruginosa, UniProt G3XD24, Y121A); test: biochemical; assay type: binding; details: PctA-LBD Y121A 70 μM; DPD/AI-2 700 μM
# T5 construct: Amino acids 30-278 and 36-360 of PctA and TlpQ, respectively; His6 (N, cleaved yes); made in house; host or cells: E. coli BL21(DE3) (pET-28a derivative)
# T5 sequence (G3XD24 30-278 Y121A): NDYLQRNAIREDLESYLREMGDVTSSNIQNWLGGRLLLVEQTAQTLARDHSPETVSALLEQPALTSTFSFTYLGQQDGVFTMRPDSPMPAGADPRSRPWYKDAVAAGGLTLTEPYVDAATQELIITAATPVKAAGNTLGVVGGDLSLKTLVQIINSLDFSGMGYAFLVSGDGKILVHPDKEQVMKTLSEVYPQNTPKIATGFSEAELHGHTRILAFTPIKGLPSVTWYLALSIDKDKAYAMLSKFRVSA
# PctA-LBD = molecular target: T6, PctA-LBD (Pseudomonas aeruginosa, UniProt G3XD24); test: ITC binding to PctA-LBD; design: species or system P. aeruginosa; details: 700 μM DPD/AI-2 into 70 μM PctA-LBD (WT); 20 °C; normal conditions; mean ± s.d. of three in text/figure, single experiments in source data
# T6 construct: Amino acids 30-278 and 36-360 of PctA and TlpQ, respectively; His6 (N, cleaved yes); made in house; host or cells: E. coli BL21(DE3) (pET-28a derivative)
# T6 sequence (G3XD24 30-278): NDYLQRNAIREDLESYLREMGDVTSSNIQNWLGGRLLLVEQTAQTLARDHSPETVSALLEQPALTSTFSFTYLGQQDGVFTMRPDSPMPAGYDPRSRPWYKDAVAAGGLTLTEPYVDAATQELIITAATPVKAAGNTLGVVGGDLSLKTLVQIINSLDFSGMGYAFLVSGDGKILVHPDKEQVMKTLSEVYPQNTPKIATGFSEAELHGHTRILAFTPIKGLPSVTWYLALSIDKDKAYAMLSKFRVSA
# rpHK1S-Z16 = test: in vitro DGC activity assay, c-di-GMP synthesis (HPLC); assay type: biochemical, R. palustris; details: 100 μM GTP, 30 °C
# Method: The DGC activity of rpHK1S-Z16 was determined by measuring the synthesis of c-di-GMP using an HPLC-based method. […] The reaction was initiated by adding 100 μM GTP and the reaction was allowed to proceed for 0, 30 and 60 min at 30 °C. At indicated time points, 50 μl aliquots were removed and heated at 100 °C for 5 min. Denatured proteins were removed through centrifugation and the supernatants were filtered through a 0.22 μm membrane. Samples were injected into an HPLC (Agilent 1260 infinity II) system equipped with a C18 reversed-phase column and a UV detector. Components were eluted isocratically with 98% A (150 mM Na2HPO4, pH 5.2) and 2% B (acetonitrile) in 15 min at a flow rate of 1 ml min^−1. The detection wavelength was 252 nm. GTP (Sigma, Cat# G8877) and c-di-GMP (Sigma, Cat# SML1228) were run as standards. The levels of synthesized c-di-GMP in the supernatants were determined from the standard curve obtained using known concentrations of c-di-GMP.
# PctA-LBD R126A = molecular target: T7, PctA-LBD R126A (Pseudomonas aeruginosa, UniProt G3XD24, R126A); test: biochemical; assay type: binding; details: PctA-LBD R126A 70 μM; DPD/AI-2 700 μM
# T7 construct: Amino acids 30-278 and 36-360 of PctA and TlpQ, respectively; His6 (N, cleaved yes); made in house; host or cells: E. coli BL21(DE3) (pET-28a derivative)
# T7 sequence (G3XD24 30-278 R126A): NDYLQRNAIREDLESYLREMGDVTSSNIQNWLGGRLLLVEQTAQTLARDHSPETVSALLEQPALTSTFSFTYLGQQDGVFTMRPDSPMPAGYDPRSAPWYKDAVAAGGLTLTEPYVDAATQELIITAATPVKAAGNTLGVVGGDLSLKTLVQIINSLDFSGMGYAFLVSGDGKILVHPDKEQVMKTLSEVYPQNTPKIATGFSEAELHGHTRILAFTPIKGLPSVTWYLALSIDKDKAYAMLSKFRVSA
# PctC-LBDF147Y = molecular target: T8, PctC-LBDF147Y (Pseudomonas aeruginosa, UniProt Q9HW93, F147Y); test: biochemical; assay type: binding; details: 700 μM DPD/AI-2 into 70 μM PctC-LBD F147Y
# T8 construct: the dCACHE-type LBDs of PctB and PctC; His6 (N, cleaved yes); made in house; host or cells: E. coli BL21(DE3) (pET-28a derivative)
# T8 sequence (Q9HW93 32-279 F147Y): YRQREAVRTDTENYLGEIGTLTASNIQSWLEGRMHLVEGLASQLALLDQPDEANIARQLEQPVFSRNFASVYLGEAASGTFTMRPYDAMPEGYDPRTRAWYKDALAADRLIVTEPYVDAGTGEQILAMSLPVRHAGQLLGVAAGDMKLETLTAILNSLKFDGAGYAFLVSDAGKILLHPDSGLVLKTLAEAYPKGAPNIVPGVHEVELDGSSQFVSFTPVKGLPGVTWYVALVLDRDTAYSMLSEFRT
compound,measurement,setting,value
"CC(=O)C(=O)C(O)CO (centres unmarked) [DPD/AI-2, 4,5-dihydroxy-2,3-pentanedione]",Kd,PctA-LBD Y101A,33 µM and 42 µM and 34 µM
same,Kd,PctB-LBD,205 µM and 176 µM and 163 µM
same,OD590 (crystal violet biofilm),P. aeruginosa PAO1 [1]; strain WT(Vector),3.71 and 3.92 and 4.21 and 4.32 and 4.12
same,OD590 (crystal violet biofilm),P. aeruginosa PAO1 [1]; strain ΔpctA(Vector),2.92 and 3.14 and 3.21 and 2.99 and 3.31
same,OD590 (crystal violet biofilm),P. aeruginosa PAO1 [1]; strain ΔpctAΔtlpQ(Vector),2.53 and 2.64 and 2.49 and 2.62 and 2.12
same,OD590 (crystal violet biofilm),P. aeruginosa PAO1 [1]; strain ΔpctAΔtlpQ(pctA),3.05 and 3.43 and 3.56 and 3.32 and 3.18
same,OD590 (crystal violet biofilm),P. aeruginosa PAO1 [1]; strain ΔpctAΔtlpQ(pctB),2.31 and 2.73 and 2.24 and 2.53 and 2.77
same,OD590 (crystal violet biofilm),P. aeruginosa PAO1 [1]; strain ΔpctAΔtlpQ(tlpQ),3.41 and 3.66 and 3.44 and 3.21 and 3.40
same,OD590 (crystal violet biofilm),P. aeruginosa PAO1 [1]; strain ΔtlpQ(Vector),3.21 and 3.31 and 3.58 and 3.67 and 3.42
same,Kd,LsrB,0.19 to 0.81 µM
same,Cells per capillary,"P. aeruginosa PAO1 [2]; 1 μM DPD/AI-2, PAO1, 30 min, buffer capillary subtracted",3700 and 4300 and 4700 and 2900 and 5300
same,Cells per capillary,"P. aeruginosa PAO1 [2]; 10 μM DPD/AI-2, PAO1, 30 min, buffer capillary subtracted",9900 and 11300 and 14200 and 11400 and 10800
same,Cells per capillary,"P. aeruginosa PAO1 [2]; 100 μM DPD/AI-2, PAO1, 30 min, buffer capillary subtracted",30800 and 31500 and 39700 and 42100 and 39200
same,Cells per capillary,"P. aeruginosa PAO1 [2]; 1000 μM DPD/AI-2, PAO1, 30 min, buffer capillary subtracted",23500 and 25700 and 24700 and 27800 and 19800
same,concentration of optimal chemotactic response,"P. aeruginosa PAO1 [2]; P. aeruginosa PAO1, capillary, 30 min",100 µM
same,Cells per capillary,"P. aeruginosa PAO1 [2]; strain ΔPA1608, 100 μM DPD/AI-2, Fig. 1d",37200 and 36700 and 39700 and 37700 and 35300
same,Cells per capillary,"P. aeruginosa PAO1 [2]; strain ΔPA1646, 100 μM DPD/AI-2, Fig. 1d",37700 and 38800 and 33600 and 35400 and 35300
same,Cells per capillary,"P. aeruginosa PAO1 [2]; strain ΔPA2573, 100 μM DPD/AI-2, Fig. 1d",39200 and 34600 and 39900 and 36000 and 39600
same,Cells per capillary,"P. aeruginosa PAO1 [2]; strain ΔPA2652, 100 μM DPD/AI-2, Fig. 1d",38500 and 34500 and 34200 and 36900 and 36500
same,Cells per capillary,"P. aeruginosa PAO1 [2]; strain ΔPA2788, 100 μM DPD/AI-2, Fig. 1d",33800 and 38800 and 38900 and 36100 and 38600
same,Cells per capillary,"P. aeruginosa PAO1 [2]; strain ΔPA2867, 100 μM DPD/AI-2, Fig. 1d",38500 and 34300 and 34100 and 37600 and 33900
same,Cells per capillary,"P. aeruginosa PAO1 [2]; strain ΔPA2920, 100 μM DPD/AI-2, Fig. 1d",36800 and 33100 and 39300 and 35100
same,Cells per capillary,"P. aeruginosa PAO1 [2]; strain ΔPA4290, 100 μM DPD/AI-2, Fig. 1d",35800 and 35100 and 37600 and 35000 and 38600
same,Cells per capillary,"P. aeruginosa PAO1 [2]; strain ΔPA4520, 100 μM DPD/AI-2, Fig. 1d",33900 and 37400 and 33500 and 36700
same,Cells per capillary,"P. aeruginosa PAO1 [2]; strain ΔPA4633, 100 μM DPD/AI-2, Fig. 1d",35700 and 39100
same,Cells per capillary,"P. aeruginosa PAO1 [2]; strain Δaer, 100 μM DPD/AI-2, Fig. 1d",36600 and 36200 and 39600 and 36400 and 37100
same,Cells per capillary,"P. aeruginosa PAO1 [2]; strain ΔctpH, 100 μM DPD/AI-2, Fig. 1d",38900 and 35200 and 37100 and 35400 and 36800
same,Cells per capillary,"P. aeruginosa PAO1 [2]; strain ΔmcpS, 100 μM DPD/AI-2, Fig. 1d",36800 and 35200 and 37500 and 35600 and 39600
same,Cells per capillary,"P. aeruginosa PAO1 [2]; strain ΔpctA, 100 μM DPD/AI-2, Fig. 1d",21400 and 23800 and 20800 and 21700 and 21800
same,Cells per capillary,"P. aeruginosa PAO1 [2]; strain ΔpctB, 100 μM DPD/AI-2, Fig. 1d",37100 and 39500 and 37300 and 38300 and 35300
same,Cells per capillary,"P. aeruginosa PAO1 [2]; strain ΔpctC, 100 μM DPD/AI-2, Fig. 1d",35300 and 37100 and 37200 and 36800 and 35800
same,Cells per capillary,"P. aeruginosa PAO1 [2]; strain ΔtlpQ, 100 μM DPD/AI-2, Fig. 1d",26100 and 28500 and 25300 and 27300 and 24300
same,Kd,PctA-LBD D173A,12 µM and 14 µM and 13 µM and 10 µM
same,Kd,PctA-LBD Y144A,16 µM and 14 µM and 12 µM
same,Kd,PctC-LBD,94 µM and 118 µM and 86 µM
same,Kd,KinD-LBD,0.12 µM and 0.16 µM and 0.15 µM
same,Kd,PctA-LBD Y121A,23 µM and 22 µM and 19 µM
same,Kd,PctA-LBD,0.12 µM and 0.16 µM and 0.13 µM
same,Concentration of c-di-GMP,"rpHK1S-Z16; 100 μM DPD/AI-2, 30 min",25.52 µM and 26.85 µM and 25.80 µM
same,Concentration of c-di-GMP,"rpHK1S-Z16; 100 μM DPD/AI-2, 60 min",33.20 µM and 34.39 µM and 33.48 µM
same,Concentration of c-di-GMP,"rpHK1S-Z16; 200 μM DPD/AI-2, 30 min",34.46 µM and 32.43 µM and 32.71 µM
same,Concentration of c-di-GMP,"rpHK1S-Z16; 200 μM DPD/AI-2, 60 min",45.28 µM and 43.18 µM and 41.92 µM
same,Kd,PctA-LBD R126A,49 µM and 33 µM and 41 µM
same,Kd,PctC-LBDF147Y,0.24 µM and 0.17 µM and 0.21 µM
